Assay results as given in patent US20100056519A1, “COMPOSITION AND METHOD FOR REDUCING PLATELET ACTIVATION AND FOR THE TREATMENT OF THROMBOTIC EVENTS” (priority 2008, published 2010).

Assays:
Assay type in all cases: cell-based, human
[1] = test system: platelets; assay: Ultegra Rapid Platelet-Function Assay (RPFA-TRAP); details: for Platelet Activation Units (PAU): Mean ± SD
Procedure: (§1) The methodology employed was conventional aggregation induced by 5 μM ADP, 1 μg/ml collagen, 10 μM TRAP, whole blood aggregation with 1 μg/ml collagen, Ultegra, and PFA-100 Analyzers, expression of 14 intact, and TRAP-stimulated major receptors by whole blood flow cytometry were utilized to assess platelet activity after preincubation with escalating concentrations of E5555 (20 ng/ml, 50 ng/ml, and 100 ng/ml). The experiments were performed in healthy volunteers, CAD patients treated with ASA, and CAD patients treated with ASA and clopidogrel combination (n=10, for each group).
(§2) An Informed Consent was obtained from all volunteers. Drug users were excluded from data analysis. The study was approved by Quorum Institutional Review Board. All subjects underwent blood sampling after at least 30 minutes of rest and two or more hours of fasting. Blood (28 ml) was drawn between 8 and 10 a.m. in order to avoid any diurnal influence and sampled from an antecubital vein using a 21-gauge butterfly needle containing 3.2% sodium citrate (1:9 volume) after having discarded the first 1.5 ml of free running blood. Four Vacutainer tubes (7.0 ml) were collected for a total of 28 ml of whole blood-citrate mixture from each study participant. Chronologically, blood samples were delivered to the core laboratory facility within 45 minutes after drawing. Then all tubes of blood-citrate mixture were pooled. One portion of pooled blood (5 ml) was kept as an internal control and pretreated with the vehicle. The remaining blood (23 ml) was used for the in vitro exposure to E5555 at concentrations of 20 ng/ml, 50 ng/ml, and 100 ng/ml. […] The platelet aggregation studies, Rapid Analyzers measures, and flow cytometry preparations were initiated within no more than 110 minutes following the blood draw, incubation with the drug, and preparation of the samples.
Whole blood aggregation was determined using a Chronolog device 592A. The whole blood-citrate mixture was diluted 1:1 with 0.5 ml phosphate buffered saline and gently swirled. The sample then was allowed to warm to 37° C. for 5 minutes then transferred to the assay well. The electrode was then placed in the cuvette and the sample was stimulated with 1 μg/ml collagen. The change in electrical impedance was digitally recorded. Each whole blood sample was analyzed utilizing 2 different clinical devices: • (1) a Rapid Platelet-Function Assay (Ultegra®) (Accumetrics, Inc., San Diego, Calif.), which is a rapid platelet-function assay aspirin cartridge test with TRAP used as agonist. Polystyrene beads coated with fibrinogen are placed in a cartridge along with the peptide that activates thrombin receptor. Anticoagulated whole blood was added to the cartridge, and agglutination between platelets and coated beads was recorded. The data mirrors turbidimetric platelet aggregation and presumably reflects platelet glycoprotein IIb/IIIa blockade. Ultegra RPFA-TRAP Assay results were reported as Platelet Activation Units (PAU); and • (2) Platelet-Function Analyzer PFA-100 ™ (Dade Behring, Deerfield Ill.), which is a high shear-inducing analyzer that simulates primary hemostasis after injury to a small vessel under flow conditions. The device provides a constant negative pressure that aspirates whole blood, which comes into contact with the collagen, coated membrane and then passes through the aperture. The time required to obtain occlusion of the aperture is digitally recorded. The time to aperture occlusion (the closure time) is recorded in seconds and is inversely related to the degree of shear-induced platelet activation. We used ADP/Collagen cartridges in the index study. Both PFA-100 and Ultegra assays were performed in duplicate. An electronic quality control test was performed on each instrument daily prior to performing any patient samples.

[2] = test system: LAMP-3 (CD63); assay: Unstimulated whole blood flow cytometry, LAMP-3; details: for LAMP-3 (CD63), Mean Fluorescence Intensity: unstimulated, Mean ± SD
Procedure: as §1, §2
(§3) Formation of platelet-leukocyte aggregates was assessed by dual labeling with pan-platelet marker (CD151), and then with CD14, the macrophage receptor for endotoxin lipopolysaccharides (PharMingen, and Coulter, San Diego, Calif., USA). The tubes were then covered with aluminum foil and incubated at 37° C. for 40 minutes with gentle rotation. After incubation, samples were immediately analyzed on a Becton Dickinson FACScan flow cytometer. The instrument was set up to measure forward light scatter, and FITC fluorescence. All parameters were collected using four-decade logarithmic amplification. The data was retrieved in list mode files and then analyzed. P selectin was expressed as percent positive cells. Other antigens were expressed as log mean fluorescence intensity.

[3] = test system: PMA (CD14 + CD151); assay: Unstimulated whole blood flow cytometry, platelet-monocyte aggregates; details: for PMA (CD14 + CD151), Mean Fluorescence Intensity: unstimulated, Mean ± SD
Procedure: as §1, §2, §3

[4] = test system: P-selectin (CD62p); assay: TRAP-stimulated whole blood flow cytometry, P-selectin; details: Mean ± SD
Procedure: as §1, §2, §3
For flow cytometry (TRAP-stimulated) all of the above flow cytometry experiments were identically repeated utilizing prestimulation with 10 μmol/L TRAP for 5 minutes at 37° C. To determine statistics, a Paired Sign Test was used to define significance of differences between vehicle and E5555-treated groups. The Mann-Whitney U test was used to analyze nonparametric data. Normally distributed data were expressed as mean±standard error (m±SE), and skewed data as median (range). All P-values were two sided. All analysis was performed using the SPSS v9.0 program (SPSS Inc., Chicago, Ill.).

[5] = E5555 20 ng/ml, Patients (ASA + C)
[6] = E5555 50 ng/ml, Patients (ASA + C)
[7] = E5555 100 ng/ml, Patients (ASA + C)
[8] = E5555 100 ng/ml, Patients (ASA)
[9] = overall summary, stimulation not stated

## Br.CCOc1cc2c(c(F)c1OCC)C(=N)N(CC(=O)c1cc(N3CCOCC3)c(OC)c(C(C)(C)C)c1)C2 [E5555, 1-(3-tert-butyl-4-methoxy-5-morpholinophenyl)-2-(5,6-diethoxy-7-fluoro-1-imino-1,3-dihydro-2H-isoindol-2-yl)ethanone hydrobromide]
[1]; [5]
  Platelet Activation Units (PAU): 115 ± 21 PAU
[1]; E5555 20 ng/ml, Patients (ASA)
  Platelet Activation Units (PAU): 118 ± 12 PAU
[1]; E5555 20 ng/ml, Volunteers
  Platelet Activation Units (PAU): 270 ± 30 PAU
[1]; [6]
  Platelet Activation Units (PAU): 108 ± 20 PAU
[1]; E5555 50 ng/ml, Patients (ASA)
  Platelet Activation Units (PAU): 114 ± 11 PAU
[1]; E5555 50 ng/ml, Volunteers
  Platelet Activation Units (PAU): 126 ± 20 PAU
[1]; [7]
  Platelet Activation Units (PAU): 112 ± 18 PAU
[1]; [8]
  Platelet Activation Units (PAU): 113 ± 14 PAU
[1]; E5555 100 ng/ml, Volunteers
  Platelet Activation Units (PAU): 117 ± 21 PAU
[1]; overall summary
  Platelet Analyzer readings, fibrinogen binding, effect in words: diminished fibrinogen binding
[1]; volunteers and CAD patients on ASA alone or with clopidogrel
  Ultegra Analyzer PAU, effect in words: reduction of PAU
[2]; [9]
  LAMP, effect in words: not affected
[2]; [5]
  LAMP-3 (CD63), Mean Fluorescence Intensity: 7.2 ± 1.3 MFI
[2]; E5555 20 ng/ml, Patients (ASA)
  LAMP-3 (CD63), Mean Fluorescence Intensity: 7.0 ± 1.6 MFI
[2]; E5555 20 ng/ml, Volunteers
  LAMP-3 (CD63), Mean Fluorescence Intensity: 8.1 ± 2.0 MFI
[2]; [6]
  LAMP-3 (CD63), Mean Fluorescence Intensity: 7.0 ± 1.7 MFI
[2]; E5555 50 ng/ml, Patients (ASA)
  LAMP-3 (CD63), Mean Fluorescence Intensity: 7.2 ± 1.5 MFI
[2]; E5555 50 ng/ml, Volunteers
  LAMP-3 (CD63), Mean Fluorescence Intensity: 8.0 ± 1.7 MFI
[2]; [7]
  LAMP-3 (CD63), Mean Fluorescence Intensity: 6.9 ± 1.8 MFI
[2]; [8]
  LAMP-3 (CD63), Mean Fluorescence Intensity: 6.5 ± 1.9 MFI
[2]; E5555 100 ng/ml, Volunteers
  LAMP-3 (CD63), Mean Fluorescence Intensity: 7.7 ± 2.1 MFI
[3]; [9]
  Formation of platelet-monocyte aggregates, effect in words: significantly reduced
[3]; [5]
  PMA (CD14 + CD151), Mean Fluorescence Intensity: 104 ± 16 MFI
[3]; E5555 20 ng/ml, Patients (ASA)
  PMA (CD14 + CD151), Mean Fluorescence Intensity: 114 ± 18 MFI
[3]; E5555 20 ng/ml, Volunteers
  PMA (CD14 + CD151), Mean Fluorescence Intensity: 130 ± 16 MFI
[3]; [6]
  PMA (CD14 + CD151), Mean Fluorescence Intensity: 100 ± 27 MFI
[3]; E5555 50 ng/ml, Patients (ASA)
  PMA (CD14 + CD151), Mean Fluorescence Intensity: 114 ± 19 MFI
[3]; E5555 50 ng/ml, Volunteers
  PMA (CD14 + CD151), Mean Fluorescence Intensity: 128 ± 18 MFI
[3]; [7]
  PMA (CD14 + CD151), Mean Fluorescence Intensity: 105 ± 21 MFI
[3]; [8]
  PMA (CD14 + CD151), Mean Fluorescence Intensity: 107 ± 20 MFI
[3]; E5555 100 ng/ml, Volunteers
  PMA (CD14 + CD151), Mean Fluorescence Intensity: 124 ± 23 MFI
[4]; [5]
  P-selectin (CD62p), % positive cells: 11 ± 5 % positive cells
[4]; E5555 20 ng/ml, Patients (ASA)
  P-selectin (CD62p), % positive cells: 22 ± 6 % positive cells
[4]; E5555 20 ng/ml, Volunteers
  P-selectin (CD62p), % positive cells: 31 ± 8 % positive cells
[4]; [6]
  P-selectin (CD62p), % positive cells: 8 ± 3 % positive cells
[4]; E5555 50 ng/ml, Patients (ASA)
  P-selectin (CD62p), % positive cells: 15 ± 4 % positive cells
[4]; E5555 50 ng/ml, Volunteers
  P-selectin (CD62p), % positive cells: 14 ± 3 % positive cells
[4]; [7]
  P-selectin (CD62p), % positive cells: 3 ± 1 % positive cells
[4]; [8]
  P-selectin (CD62p), % positive cells: 8 ± 4 % positive cells
[4]; E5555 100 ng/ml, Volunteers
  P-selectin (CD62p), % positive cells: 11 ± 3 % positive cells
